This note sets out measurements from patent US20230406860A1, “HETEROCYCLIC SPIRO COMPOUNDS AND METHODS OF USE” (AMGEN INC., priority 2020, published 2023).

For test [1], the system named is MIA PaCa-2 (human pancreatic carcinoma) cells. Nature of the test: Cell viability assay (CellTiter-Glo), MIA PaCa-2. It is filed as cell-based. The settings on record: 72 h. On the procedure: (§1) MIA PaCa-2 (human pancreatic carcinoma; ATCC CRL-1420) or A549 (human lung carcinoma; ATCC CCL-185) cells were cultured in RPMI 1640 medium containing 10% fetal bovine serum and 1× penicillin/streptomycin/L-glutamine. Cells were seeded in 384-well plates at a density of 1.67E+04 cells/mL and incubated at 37° C., 5% CO2, overnight. Serially-diluted compound or DMSO was added to the cells, and plates were incubated at 37° C., 5% CO2 for 72 h. Cell viability was measured using a CellTiter-Glo® Luminescent Cell Viability Assay kit (Promega) according to the manufacturer's protocol. The luminescence signal of treated samples was normalized to DMSO control, and data were analyzed using a 4-parameter logistic model to calculate IC50 values.
Background: Cellular ATP, detected with luciferase, serves as a proxy for viable cell number.

Test [2] has as its system A549 (human lung carcinoma) cells. Nature of the test: Cell viability assay (CellTiter-Glo), A549. The settings on record: 72 h. Type of test: cell-based. On the procedure:
as §1

The target of test [3] is GDP-bound KRAS protein (aa 1-169), containing both G12C and C118A amino acid substitutions (Homo sapiens, UniProt P01116, C118A/G12C). Description: Coupled nucleotide exchange assay (SOS-mediated, AlphaScreen). It is filed as biochemical. Conditions: 2 h compound pre-incubation; read-out: Avg 2 h Coupled exchange IC50. As to the method:
Coupled Nucleotide Exchange Assay:
For all subsequent steps, DTT was added to the reaction buffer at a final concentration of 1 mM. […] The assay plates were then read on a plate reader measuring luminescence signal. Signal intensity of compound-containing wells were normalized to DMSO control, and data were analyzed using a 4-parameter logistic model to calculate IC50 values.
In general terms: Bead proximity is the source of the signal in Alpha formats.

Some results are limits rather than exact numbers.

Sequence of GDP-bound KRAS protein (aa 1-169), containing both G12C and C118A amino acid substitutions (P01116 1-169 isoform P01116-2 G12C/C118A): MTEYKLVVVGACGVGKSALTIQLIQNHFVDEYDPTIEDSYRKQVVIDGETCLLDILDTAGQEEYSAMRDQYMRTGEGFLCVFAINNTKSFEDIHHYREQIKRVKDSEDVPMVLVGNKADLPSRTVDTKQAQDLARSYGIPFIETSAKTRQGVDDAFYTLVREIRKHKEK

By IC50 is commonly meant the concentration at which inhibition is half-maximal. For the compound `C=CC(=O)N1CC2(CCN(c3nc4c(c(N[C@H](CC(=O)NC)CC(C)C)n3)CC(C)CC4)C2)C1` (stereo partly drawn) [Example 1-33, (3S)-N,5-dimethyl-3-((6-methyl-2-(2-(2-propenoyl)-2,6-diazaspiro[3.4]octan-6-yl)-5,6,7,8-tetrahydro-4-quinazolinyl)amino)hexanamide], the IC50 in test [1] was 350 nM; in test [2], over 25000 nM; in test [3] it was 446 nM.
As for `C=CC(=O)N1CC2(CCN(c3nc(N[C@H](CC(=O)NC)CC(C)C)c4ncc(C)cc4n3)C2)C1` [Example 1-34, (3S)-N,5-dimethyl-3-((7-methyl-2-(2-(2-propenoyl)-2,6-diazaspiro[3.4]octan-6-yl)pyrido[3,2-d]pyrimidin-4-yl)amino)hexanamide], the half-inhibitory concentration (IC50) was 217 nM in test [1], over 25000 nM in test [2] and 372 nM in test [3].
For `C=CC(=O)N1CC2(CCN(c3nc(N[C@H](CC(=O)NC)CC(C)C)c4ccc(C(F)(F)F)cc4n3)C2)C1` [Example 1-35, (3S)-N,5-dimethyl-3-((2-(2-(2-propenoyl)-2,6-diazaspiro[3.4]octan-6-yl)-7-(trifluoromethyl)-4-quinazolinyl)amino)hexanamide], in that order: 179 nM, 10500 nM and 142 nM.
As for `C=CC(=O)N1CC2(CCN(c3nc(N[C@H](CC(=O)NC)CC(C)C)c4ncc(-c5nccs5)cc4n3)C2)C1` [Example 1-36, (3S)-N,5-dimethyl-3-((2-(2-(2-propenoyl)-2,6-diazaspiro[3.4]octan-6-yl)-7-(1,3-thiazol-2-yl)pyrido[3,2-d]pyrimidin-4-yl)amino)hexanamide], the half-maximal inhibitory concentration (IC50) in test [1] was 379 nM; in test [2], over 5000 nM; in test [3] it was 23 nM.
In the case of `C=CC(=O)N1CC2(CCN(c3nc(N[C@H](CC(=O)NC)CC(C)C)c4ncccc4n3)C2)C1` [Example 1-37, (3S)-N,5-dimethyl-3-((2-(2-(2-propenoyl)-2,6-diazaspiro[3.4]octan-6-yl)pyrido[3,2-d]pyrimidin-4-yl)amino)hexanamide], the IC50 in test [1] was 632 nM; in test [2], over 25000 nM; in test [3], 743 nM.
Regarding `C=CC(=O)N1CC2(CCN(c3nc(N[C@H](CC(=O)NC)CC(C)C)c4ncc(C5CC5)cc4n3)C2)C1` [Example 1-38, (3S)-3-((7-cyclopropyl-2-(2-(2-propenoyl)-2,6-diazaspiro[3.4]octan-6-yl)pyrido[3,2-d]pyrimidin-4-yl)amino)-N,5-dimethylhexanamide], the results for the IC50 in test [1], in test [2] and in test [3] were 959 nM, over 5000 nM and 60 nM, respectively.
For `C=CC(=O)N1CC2(CCN(c3nc4c(c(N[C@H](Cc5nc(C)no5)CC(C)C)n3)CCC(C)(C)C4)C2)C1` [Example 1-39, 1-(6-(7,7-dimethyl-4-(((2S)-4-methyl-1-(3-methyl-1,2,4-oxadiazol-5-yl)-2-pentanyl)amino)-5,6,7,8-tetrahydro-2-quinazolinyl)-2,6-diazaspiro[3.4]octan-2-yl)-2-propen-1-one], in that order: 790 nM, over 25000 nM and 685 nM.
For `C=CC(=O)N1CC2(CCN(c3nc(N[C@H](CC(=O)NC)CC(C)C)c4ccc(C5CC5)cc4n3)C2)C1` [Example 1-40, (3S)-3-((7-cyclopropyl-2-(2-(2-propenoyl)-2,6-diazaspiro[3.4]octan-6-yl)-4-quinazolinyl)amino)-N,5-dimethylhexanamide], the half-maximal inhibitory concentration (IC50) was determined as 169 nM in test [1], 19000 nM in test [2] and 84 nM in test [3].
The like results for `C=CC(=O)N1CC2(CCN(c3nc(N[C@H](CC(=O)NC)CC(C)C)c4cc(C)ccc4n3)C2)C1` [Example 1-41, (3S)-N,5-dimethyl-3-((6-methyl-2-(2-(2-propenoyl)-2,6-diazaspiro[3.4]octan-6-yl)-4-quinazolinyl)amino)hexanamide] were, in that order, 1230 nM, over 25000 nM and 779 nM.
For `C=CC(=O)N1CC2(CCN(c3nc(N[C@H](CC(=O)NC)CC(C)C)c4ncc(OC)cc4n3)C2)C1` [Example 1-42, (3S)-3-((7-methoxy-2-(2-(2-propenoyl)-2,6-diazaspiro[3.4]octan-6-yl)pyrido[3,2-d]pyrimidin-4-yl)amino)-N,5-dimethylhexanamide], the IC50 is 296 nM in test [1], over 5000 nM in test [2] and 22 nM in test [3].
For `C=CC(=O)N1CC2(CCN(c3nc4c(c(N[C@H](Cc5nccs5)CC(C)C)n3)CCC(C)(C)C4)C2)C1` [Example 1-43, 1-(6-(7,7-dimethyl-4-(((2S)-4-methyl-1-(1,3-thiazol-2-yl)-2-pentanyl)amino)-5,6,7,8-tetrahydro-2-quinazolinyl)-2,6-diazaspiro[3.4]octan-2-yl)-2-propen-1-one], in that order: 205 nM, 13500 nM and 121 nM.
The like results for `C=CC(=O)N1CC2(CCN(c3nc4c(c(N[C@H](Cc5noc(C)n5)CC(C)C)n3)CCC(C)(C)C4)C2)C1` [Example 1-44, 1-(6-(7,7-dimethyl-4-(((2S)-4-methyl-1-(5-methyl-1,2,4-oxadiazol-3-yl)-2-pentanyl)amino)-5,6,7,8-tetrahydro-2-quinazolinyl)-2,6-diazaspiro[3.4]octan-2-yl)-2-propen-1-one] were, in that order, 316 nM, 21900 nM and 380 nM.
For `C=CC(=O)N1CC2(CCN(c3nc4c(c(N[C@@H](CC(C)C)Cn5cncn5)n3)CCC(C)(C)C4)C2)C1` [Example 1-45, 1-(6-(7,7-dimethyl-4-(((2S)-4-methyl-1-(1H-1,2,4-triazol-1-yl)-2-pentanyl)amino)-5,6,7,8-tetrahydro-2-quinazolinyl)-2,6-diazaspiro[3.4]octan-2-yl)-2-propen-1-one], in that order: 985 nM, over 25000 nM and 1510 nM.
With `C=CC(=O)N1CC2(CCN(c3nc4c(c(N[C@@H](CC(C)C)Cn5cccn5)n3)CCC(C)(C)C4)C2)C1` [Example 1-46, 1-(6-(7,7-dimethyl-4-(((2S)-4-methyl-1-(1H-pyrazol-1-yl)-2-pentanyl)amino)-5,6,7,8-tetrahydro-2-quinazolinyl)-2,6-diazaspiro[3.4]octan-2-yl)-2-propen-1-one], the half-inhibitory concentration (IC50) in test [1] was found to be 122 nM; in test [2], 20200 nM; in test [3], 162 nM.
For `C=CC(=O)N1CC2(CCN(c3nc4c(c(N[C@H](Cc5ccon5)CC(C)C)n3)CCC(C)(C)C4)C2)C1` [Example 1-48, 1-(6-(7,7-dimethyl-4-(((2S)-4-methyl-1-(1,2-oxazol-3-yl)-2-pentanyl)amino)-5,6,7,8-tetrahydro-2-quinazolinyl)-2,6-diazaspiro[3.4]octan-2-yl)-2-propen-1-one], in that order: 49 nM, 15800 nM and 53 nM.
Turning to `C=CC(=O)N1CC2(CCN(c3nc4c(c(N[C@H](Cc5cc(C)no5)CC(C)C)n3)CCC(C)(C)C4)C2)C1` [Example 1-49, 1-(6-(7,7-dimethyl-4-(((2S)-4-methyl-1-(3-methyl-1,2-oxazol-5-yl)-2-pentanyl)amino)-5,6,7,8-tetrahydro-2-quinazolinyl)-2,6-diazaspiro[3.4]octan-2-yl)-2-propen-1-one], the IC50 in test [1] was determined as 218 nM; in test [2] it was 11600 nM; in test [3], 93 nM.
